Columns and labels:
[1] = target: T1, GlunN1/GluN2A glutamate receptors (Homo sapiens, UniProt Q05586+Q12879); test: Whole-cell patch clamp of mammalian cells (Ionworks Barracuda), positive allosteric modulation (PAM) of NMDA receptor, 2A; type: cell-based; conditions: for Emax: HEK293, HEK293 cells; for Emax / Avg Emax 2A (%): % activation of current elicited with EC20 L-glutamate and 30 µM glycine; for EC50 / Avg Emax 2A (%): HEK293 cells; for EC50: co-application with EC20 L-glutamate and 30 µM glycine, 8-point concentration-response
T1 construct: expressed in transfected cells
T1 sequence (Q12879 23-1464, other chains not shown): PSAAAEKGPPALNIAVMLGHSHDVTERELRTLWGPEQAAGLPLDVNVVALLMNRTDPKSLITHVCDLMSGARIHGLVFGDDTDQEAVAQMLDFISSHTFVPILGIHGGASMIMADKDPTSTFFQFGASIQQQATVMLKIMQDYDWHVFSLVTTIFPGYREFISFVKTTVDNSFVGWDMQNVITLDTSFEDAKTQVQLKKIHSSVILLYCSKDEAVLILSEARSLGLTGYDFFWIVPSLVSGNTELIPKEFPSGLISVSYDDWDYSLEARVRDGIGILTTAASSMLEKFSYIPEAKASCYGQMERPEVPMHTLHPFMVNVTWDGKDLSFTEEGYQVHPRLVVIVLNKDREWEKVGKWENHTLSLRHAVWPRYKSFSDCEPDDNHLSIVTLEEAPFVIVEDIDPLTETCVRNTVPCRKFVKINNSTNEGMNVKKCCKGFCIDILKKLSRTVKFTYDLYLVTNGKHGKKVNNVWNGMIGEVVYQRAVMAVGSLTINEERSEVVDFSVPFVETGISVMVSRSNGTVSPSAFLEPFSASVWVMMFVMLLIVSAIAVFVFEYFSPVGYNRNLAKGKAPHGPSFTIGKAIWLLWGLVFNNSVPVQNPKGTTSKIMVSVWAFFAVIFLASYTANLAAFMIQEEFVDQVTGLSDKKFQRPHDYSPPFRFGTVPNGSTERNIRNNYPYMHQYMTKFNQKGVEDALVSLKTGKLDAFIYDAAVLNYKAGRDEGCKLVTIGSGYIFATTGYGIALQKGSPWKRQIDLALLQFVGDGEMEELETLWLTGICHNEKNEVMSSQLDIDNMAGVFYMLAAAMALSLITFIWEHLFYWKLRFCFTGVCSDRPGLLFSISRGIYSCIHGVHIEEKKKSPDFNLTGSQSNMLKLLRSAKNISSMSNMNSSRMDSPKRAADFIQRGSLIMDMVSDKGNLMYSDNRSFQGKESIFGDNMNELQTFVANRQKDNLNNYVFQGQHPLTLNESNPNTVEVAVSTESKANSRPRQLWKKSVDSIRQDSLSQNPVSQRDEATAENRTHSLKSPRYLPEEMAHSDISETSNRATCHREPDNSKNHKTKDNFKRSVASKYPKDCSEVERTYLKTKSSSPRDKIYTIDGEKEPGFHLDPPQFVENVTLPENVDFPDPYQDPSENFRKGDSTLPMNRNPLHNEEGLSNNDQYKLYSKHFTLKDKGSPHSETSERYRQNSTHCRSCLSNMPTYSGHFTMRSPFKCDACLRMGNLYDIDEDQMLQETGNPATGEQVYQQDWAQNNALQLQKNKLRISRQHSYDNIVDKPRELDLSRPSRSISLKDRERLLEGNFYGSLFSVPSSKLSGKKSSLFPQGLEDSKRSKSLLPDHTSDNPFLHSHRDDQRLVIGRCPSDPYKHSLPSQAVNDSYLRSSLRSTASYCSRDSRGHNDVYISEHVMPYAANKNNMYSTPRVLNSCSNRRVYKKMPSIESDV
Experimental: (§1) The measurements were perfomed using Ion Works Barracuda platform following this procedure: • Electrophysiological Procedures: • a) Intracellular solution (mM): 50 mM CsCl, 90 mM CsF, 2 mM MgCl2, 5 mM EGTA, 10 mM HEPES. Adjust to pH 7.2 with CsOH. • b) Extracellular solution, HB-PS (composition in mM): NaCl, 137; KCl, 1.0; CaCl2, 5; HEPES, 10; Glucose, 10; pH adjusted to 7.4 with NaOH (refrigerated until use). • c) Holding potential: -70 mV, potential during agonist/PAM application: -40 mV. • Recording procedure: • a) Extracellular buffer will be loaded into the PPC plate wells (11 µL per well). Cell suspension will be pipetted into the wells (9 µL per well) of the PPC planar electrode. • b) Whole-cell recording configuration will be established via patch perforation with membrane currents recorded by on-board patch clamp amplifiers. • c) Two recordings (scans) will be performed. First, during pre-application of test article alone (duration of pre-application - 5 min) and second, during test articles and agonist (EC20 L-glutamate and 30 µM glycine) co-application to detect positive modulatory effects of the test article.
(§2) Test Article Administration: The first pre-application will consist of the addition of 20 µL of 2X concentrated test article solution and, second, of 20 µL of 1X concentrated test article and agonist at 10 µL/s (2 second total application time).
(§3) PAM concentration-response data will be fitted to an equation of the form: % Activation = % L−glutamate EC20 + {(%MAX−%L−glutamateEC20)/[1+(([Test]/; EC50))^N]}, [formula] where [Test] will be the concentration of PAM (test article), EC50 will be the concentration of PAM producing half-maximal activation, N will be the Hill coefficient, % L-glutamate EC20 will be the percentage of the current Elicited with L-glutamate EC20, % MAX is the percentage of the current activated with the highest dose of PAM co-admitted with L-glutamate EC20 and % Activation will be the percentage of the current elicited with L-glutamate EC10-30 at each PAM concentration.
(§4) The maximal amplitude of the evoked currents are measured and defined as Peak Current Amplitude (PCA).

[2] = target: T2, GluN2B glutamate receptors (Homo sapiens, UniProt Q05586+Q13224); test: Whole-cell patch clamp of mammalian cells (Ionworks Barracuda), positive allosteric modulation (PAM) of NMDA receptor, 2B; type: cell-based; conditions: for Emax / Avg Emax 2B (%): % activation of current elicited with EC20 L-glutamate and 30 µM glycine; for EC50: co-application with EC20 L-glutamate and 30 µM glycine, 8-point concentration-response
T2 construct: expressed in transfected cells; host or cells: mammalian cells (line not described for GluN2B)
T2 sequence (Q13224 27-1484, other chains not shown): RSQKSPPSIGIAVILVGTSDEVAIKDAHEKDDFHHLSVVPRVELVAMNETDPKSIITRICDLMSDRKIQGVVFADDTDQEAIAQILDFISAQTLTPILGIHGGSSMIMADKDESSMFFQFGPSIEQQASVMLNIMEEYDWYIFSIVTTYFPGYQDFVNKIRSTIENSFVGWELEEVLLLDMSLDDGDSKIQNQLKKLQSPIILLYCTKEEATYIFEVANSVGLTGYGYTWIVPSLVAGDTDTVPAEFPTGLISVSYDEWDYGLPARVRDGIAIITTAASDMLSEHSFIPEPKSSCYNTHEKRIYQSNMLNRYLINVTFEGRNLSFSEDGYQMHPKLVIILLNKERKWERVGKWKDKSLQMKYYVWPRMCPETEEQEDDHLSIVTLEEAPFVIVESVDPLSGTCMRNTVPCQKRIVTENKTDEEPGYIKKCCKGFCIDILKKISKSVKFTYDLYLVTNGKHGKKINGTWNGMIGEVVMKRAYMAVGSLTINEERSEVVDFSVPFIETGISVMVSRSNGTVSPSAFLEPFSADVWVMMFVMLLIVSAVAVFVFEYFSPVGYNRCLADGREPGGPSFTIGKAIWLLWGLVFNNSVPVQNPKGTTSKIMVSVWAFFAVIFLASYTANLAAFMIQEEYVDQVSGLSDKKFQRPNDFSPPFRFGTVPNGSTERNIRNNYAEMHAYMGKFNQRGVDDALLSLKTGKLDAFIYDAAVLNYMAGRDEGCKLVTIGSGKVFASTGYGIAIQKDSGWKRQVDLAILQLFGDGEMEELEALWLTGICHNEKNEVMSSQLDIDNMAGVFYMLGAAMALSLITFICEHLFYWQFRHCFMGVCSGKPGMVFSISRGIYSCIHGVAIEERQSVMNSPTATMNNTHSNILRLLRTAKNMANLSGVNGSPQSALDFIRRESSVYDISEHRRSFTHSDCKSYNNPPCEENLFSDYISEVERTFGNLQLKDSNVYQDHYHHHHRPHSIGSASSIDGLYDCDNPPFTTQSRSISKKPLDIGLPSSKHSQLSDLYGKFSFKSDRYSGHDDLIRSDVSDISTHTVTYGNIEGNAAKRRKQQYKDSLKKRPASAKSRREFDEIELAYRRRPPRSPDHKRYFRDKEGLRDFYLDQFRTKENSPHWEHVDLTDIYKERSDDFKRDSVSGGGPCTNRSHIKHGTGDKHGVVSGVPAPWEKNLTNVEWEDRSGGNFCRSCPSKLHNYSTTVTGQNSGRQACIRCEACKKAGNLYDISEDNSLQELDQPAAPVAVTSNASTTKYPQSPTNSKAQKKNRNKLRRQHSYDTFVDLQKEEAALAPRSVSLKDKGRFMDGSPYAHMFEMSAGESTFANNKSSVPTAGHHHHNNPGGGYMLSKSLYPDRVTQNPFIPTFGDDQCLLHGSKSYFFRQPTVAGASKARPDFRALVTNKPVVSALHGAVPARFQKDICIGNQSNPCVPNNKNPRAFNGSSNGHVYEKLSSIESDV
Experimental: as §1, §2, §3, §4

Structure (SMILES)	Emax [1] [%]	Emax [2] [%]	EC50 [1] [nM]	EC50 [2] [nM]	Avg Emax 2A (%) [1] [%]	Avg Emax 2B (%) [2] [%]
C[C@H](CC[C@@H](O)C(C)(C)C)[C@H]1CC[C@H]2[C@@H]3CC[C@@H]4C[C@](O)(C(F)(F)F)CC[C@]4(C)[C@H]3CC[C@]12C [Compound 3788]	229	410				
CC[C@]1(O)CC[C@@]2(C)C(=CC[C@H]3[C@@H]4CC[C@H]([C@H](C)CC[C@@H](O)c5ccccc5F)[C@@]4(C)CC[C@@H]32)C1 [Compound 7282]	208	290				
CC[C@]1(O)CC[C@H]2C(=CC[C@@H]3[C@@H]2CC[C@]2(C)[C@@H]([C@H](C)CC[C@H](O)C(C)C)CC[C@@H]32)C1 [Compound 8462]	273	281				
C[C@H](CC[C@H](O)C(C)(C)C)[C@H]1CC[C@H]2[C@@H]3CC[C@@H]4C[C@](O)(C(F)(F)F)CC[C@]4(C)[C@H]3CC[C@]12C [Compound 3634]	221	379				
C[C@H](CCC1(O)CCC(C(C)(C)C)CC1)[C@H]1CC[C@H]2[C@@H]3CC[C@H]4C[C@](O)(C(F)(F)F)CC[C@]4(C)[C@H]3CC[C@]12C (stereo partly shown) [Compound 4360]	38.1	14.6	> 10000	> 10000		
CC[C@]1(O)CC[C@H]2C(=CC[C@@H]3[C@@H]2CC[C@]2(C)[C@@H]([C@H](C)CCCC4(O)CCC(C)(C)CC4)CC[C@@H]32)C1 [Compound 10317]			> 10000	> 10000	56.7	59.9
C[C@H](CCC1(O)CCC(F)(F)CC1)[C@H]1CC[C@H]2[C@@H]3CC=C4C[C@](O)(C(F)(F)F)CC[C@]4(C)[C@H]3CC[C@]12C [Compound 2392]	230	166				
C[C@H](CC[C@@H](O)C(C)(C)C)[C@H]1CC[C@H]2[C@@H]3CC=C4C[C@](O)(C(F)(F)F)CC[C@]4(C)[C@H]3CC[C@]12C [Compound 3382]	309	461				
CC[C@]1(O)CC[C@@]2(C)C(=CC[C@H]3[C@@H]4CC[C@H]([C@H](C)CC[C@H](O)c5ccc(F)cc5)[C@@]4(C)CC[C@@H]32)C1 [Compound 7146]	104	167				
C[C@H](CC[C@@](C)(O)c1ccccc1)[C@H]1CC[C@H]2[C@@H]3CC=C4C[C@@](C)(O)CC[C@]4(C)[C@H]3CC[C@]12C [Compound 7467]	20.5	8.8				
C[C@H](CC[C@H](O)C(C)(C)C)[C@H]1CC[C@H]2[C@@H]3CC=C4C[C@](O)(C(F)(F)F)CC[C@]4(C)[C@H]3CC[C@]12C [Compound 3507]	166	241				
C[C@H](CCC(O)Cc1ccccc1)[C@H]1CC[C@H]2[C@@H]3CC=C4C[C@@](C)(O)CC[C@]4(C)[C@H]3CC[C@]12C (stereo partly shown) [Compound 660]			701	517	195.2	281.1
C[C@H](CCC1(O)CCOCC1)[C@H]1CC[C@H]2[C@@H]3CC[C@H]4C[C@](O)(C(F)(F)F)CC[C@]4(C)[C@H]3CC[C@]12C [Compound 11]			117	104	151.2	157.4
